Reference: patent US8748415B2 (priority 2011, dated 2014)
pEC50: −log10 of the molar value.

Tested on: recombinant NL4-3 virus (Renilla luciferase in nef, Gag P373S)
Assay: HIV cell culture assay (luciferase activity in MT-2 cells infected with NLRluc recombinant virus)
Assay type: cell-based
Conditions: NL43, MT-2 cells infected 4-5 days with NLRluc recombinant virus
In short: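 Activity was read as luciferase output (Dual Luciferase reagents premixed with lysis solution) after 4–5 days of infection in serially diluted inhibitor. Host cells were MT-2 in 10% FBS RPMI. The reporter virus came from transfected 293T cells and was titered on MT-2.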

C=C(C)[C@@H]1CC[C@]2(CNCCC(=O)O)CC[C@]3(C)[C@H](CC[C@@H]4[C@@]5(C)CC=C(c6ccc(C(=O)O)cc6)C(C)(C)[C@@H]5CC[C@]43C)[C@@H]12 [Example 64, 4-((1R,3aS,5aR,5bR,7aR,11aS,11bR,13aR,13bR)-3a-((2-carboxymethylamino)methyl)-5a,5b,8,8,11a-pentamethyl-1-(prop-1-en-2-yl)-2,3,3a,4,5,5a,5b,6,7,7a,8,11,11a,11b,12,13,13a,13b-octadecahydro-1H-cyclopenta[a]chrysen-9-yl)benzoic acid]
pEC50 (class symbol): > 7.00

C=C(C)[C@@H]1CC[C@]2(CNCCCBr)CC[C@]3(C)[C@H](CC[C@@H]4[C@@]5(C)CC=C(c6ccc(C(=O)O)cc6)C(C)(C)[C@@H]5CC[C@]43C)[C@@H]12 [Example 65, 4-((1R,3aS,5aR,5bR,7aR,11aS,11bR,13aR,13bR)-3a-((3-bromopropylamino)methyl)-5a,5b,8,8,11a-pentamethyl-1-(prop-1-en-2-yl)-2,3,3a,4,5,5a,5b,6,7,7a,8,11,11a,11b,12,13,13a,13b-octadecahydro-1H-cyclopenta[a]chrysen-9-yl)benzoic acid]
pEC50 (numeric value): 9.00

C=C(C)[C@@H]1CC[C@]2(CNCC3(CN4CCCC4)CC3)CC[C@]3(C)[C@H](CC[C@@H]4[C@@]5(C)CC=C(c6ccc(C(=O)O)cc6)C(C)(C)[C@@H]5CC[C@]43C)[C@@H]12 [Example 66, 4-((1R,3aS,5aR,5bR,7aR,11aS,11bR,13aR,13bR)-5a,5b,8,8,11a-pentamethyl-1-(prop-1-en-2-yl)-3a-(((1-(pyrrolidin-1-ylmethyl)cyclopropyl)methylamino)methyl)-2,3,3a,4,5,5a,5b,6,7,7a,8,11,11a,11b,12,13,13a,13b-octadecahydro-1H-cyclopenta[a]chrysen-9-yl)benzoic acid]
pEC50 (class symbol): > 7.00

C=C(C)[C@@H]1CC[C@]2(CNCCCN)CC[C@]3(C)[C@H](CC[C@@H]4[C@@]5(C)CC=C(c6ccc(C(=O)O)cc6)C(C)(C)[C@@H]5CC[C@]43C)[C@@H]12 [Example 67, 4-((1R,3aS,5aR,5bR,7aR,11aS,11bR,13aR,13bR)-3a-((3-aminopropylamino)methyl)-5a,5b,8,8,11a-pentamethyl-1-(prop-1-en-2-yl)-2,3,3a,4,5,5a,5b,6,7,7a,8,11,11a,11b,12,13,13a,13b-octadecahydro-1H-cyclopenta[a]chrysen-9-yl)benzoic acid]
pEC50 (class symbol): > 7.00

C=C(C)[C@@H]1CC[C@]2(CNCCCN3CCCC3)CC[C@]3(C)[C@H](CC[C@@H]4[C@@]5(C)CC=C(c6ccc(C(=O)O)cc6)C(C)(C)[C@@H]5CC[C@]43C)[C@@H]12 [Example 68, 4-((1R,3aS,5aR,5bR,7aR,11aS,11bR,13aR,13bR)-5a,5b,8,8,11a-pentamethyl-1-(prop-1-en-2-yl)-3a-((3-(pyrrolidin-1-yl)propylamino)methyl)-2,3,3a,4,5,5a,5b,6,7,7a,8,11,11a,11b,12,13,13a,13b-octadecahydro-1H-cyclopenta[a]chrysen-9-yl)benzoic acid]
pEC50 (class symbol): > 7.00

C=C(C)[C@@H]1CC[C@]2(CNCCCO)CC[C@]3(C)[C@H](CC[C@@H]4[C@@]5(C)CC=C(c6ccc(C(=O)O)cc6)C(C)(C)[C@@H]5CC[C@]43C)[C@@H]12 [Example 69, 4-((1R,3aS,5aR,5bR,7aR,11aS,11bR,13aR,13bR)-3a-((3-hydroxypropylamino)methyl)-5a,5b,8,8,11a-pentamethyl-1-(prop-1-en-2-yl)-2,3,3a,4,5,5a,5b,6,7,7a,8,11,11a,11b,12,13,13a,13b-octadecahydro-1H-cyclopenta[a]chrysen-9-yl)benzoic acid]
pEC50 (class symbol): > 7.00

C=C(C)[C@@H]1CC[C@]2(CNCCC(=O)N3CCCC3)CC[C@]3(C)[C@H](CC[C@@H]4[C@@]5(C)CC=C(c6ccc(C(=O)O)cc6)C(C)(C)[C@@H]5CC[C@]43C)[C@@H]12 [Example 70, 4-((1R,3aS,5aR,5bR,7aR,11aS,11bR,13aR,13bR)-5a,5b,8,8,11a-pentamethyl-3a-((3-oxo-3-(pyrrolidin-1-yl)propylamino)methyl)-1-(prop-1-en-2-yl)-2,3,3a,4,5,5a,5b,6,7,7a,8,11,11a,11b,12,13,13a,13b-octadecahydro-1H-cyclopenta[a]chrysen-9-yl)benzoic acid]
pEC50 (class symbol): > 7.00

C=C(C)[C@@H]1CC[C@]2(CNCCCN3C(=O)CCC3=O)CC[C@]3(C)[C@H](CC[C@@H]4[C@@]5(C)CC=C(c6ccc(C(=O)O)cc6)C(C)(C)[C@@H]5CC[C@]43C)[C@@H]12 [Example 71, 4-((1R,3aS,5aR,5bR,7aR,11aS,11bR,13aR,13bR)-3a-((3-(2,5-dioxopyrrolidin-1-yl)propylamino)methyl)-5a,5b,8,8,11a-pentamethyl-1-(prop-1-en-2-yl)-2,3,3a,4,5,5a,5b,6,7,7a,8,11,11a,11b,12,13,13a,13b-octadecahydro-1H-cyclopenta[a]chrysen-9-yl)benzoic acid]
pEC50 (class symbol): > 7.00

C=C(C)[C@@H]1CC[C@]2(CNCCCN3CCCCC3)CC[C@]3(C)[C@H](CC[C@@H]4[C@@]5(C)CC=C(c6ccc(C(=O)O)cc6)C(C)(C)[C@@H]5CC[C@]43C)[C@@H]12 [Example 72, 4-((1R,3aS,5aR,5bR,7aR,11aS,11bR,13aR,13bR)-5a,5b,8,8,11a-pentamethyl-3a-((3-(piperidin-1-yl)propylamino)methyl)-1-(prop-1-en-2-yl)-2,3,3a,4,5,5a,5b,6,7,7a,8,11,11a,11b,12,13,13a,13b-octadecahydro-1H-cyclopenta[a]chrysen-9-yl)benzoic acid]
pEC50 (class symbol): > 7.00

C=C(C)[C@@H]1CC[C@]2(CNC/C=C/CN3CCS(=O)(=O)CC3)CC[C@]3(C)[C@H](CC[C@@H]4[C@@]5(C)CC=C(c6ccc(C(=O)O)cc6)C(C)(C)[C@@H]5CC[C@]43C)[C@@H]12 [Example 73, 4-((1R,3aS,5aR,5bR,7aR,11aS,11bR,13aR,13bR)-3a-((((2E)-4-(1,1-dioxido-4-thiomorpholinyl)-2-buten-1-yl)amino)methyl)-1-isopropenyl-5a,5b,8,8,11a-pentamethyl-2,3,3a,4,5,5a,5b,6,7,7a,8,11,11a,11b,12,13,13a,13b-octadecahydro-1H-cyclopenta[a]chrysen-9-yl)benzoic acid]
pEC50 (class symbol): > 7.00

C=C(C)[C@@H]1CC[C@]2(CNCCCN3CCCC3CO)CC[C@]3(C)[C@H](CC[C@@H]4[C@@]5(C)CC=C(c6ccc(C(=O)O)cc6)C(C)(C)[C@@H]5CC[C@]43C)[C@@H]12 (stereo partly drawn) [Example 74, 4-((1R,3aS,5aR,5bR,7aR,11aS,11bR,13aR,13bR)-3a-((3-(2-(hydroxymethyl)pyrrolidin-1-yl)propylamino)methyl)-5a,5b,8,8,11a-pentamethyl-1-(prop-1-en-2-yl)-2,3,3a,4,5,5a,5b,6,7,7a,8,11,11a,11b,12,13,13a,13b-octadecahydro-1H-cyclopenta[a]chrysen-9-yl)benzoic acid]
pEC50 (class symbol): > 7.00

C=C(C)[C@@H]1CC[C@]2(CNCCC(=O)N(C)C)CC[C@]3(C)[C@H](CC[C@@H]4[C@@]5(C)CC=C(c6ccc(C(=O)O)cc6)C(C)(C)[C@@H]5CC[C@]43C)[C@@H]12 [Example 75, 4-((1R,3aS,5aR,5bR,7aR,11aS,11bR,13aR,13bR)-3a-((3-(dimethylamino)-3-oxopropylamino)methyl)-5a,5b,8,8,11a-pentamethyl-1-(prop-1-en-2-yl)-2,3,3a,4,5,5a,5b,6,7,7a,8,11,11a,11b,12,13,13a,13b-octadecahydro-1H-cyclopenta[a]chrysen-9-yl)benzoic acid]
pEC50 (class symbol): > 7.00

C=C(C)[C@@H]1CC[C@]2(CNCCCCN3CCS(=O)(=O)CC3)CC[C@]3(C)[C@H](CC[C@@H]4[C@@]5(C)CC=C(c6ccc(C(=O)O)cc6)C(C)(C)[C@@H]5CC[C@]43C)[C@@H]12 [Example 76, 4-((1R,3aS,5aR,5bR,7aR,11aS,11bR,13aR,13bR)-3a-(((4-(1,1-dioxido-4-thiomorpholinyl)butyl)amino)methyl)-1-isopropenyl-5a,5b,8,8,11a-pentamethyl-2,3,3a,4,5,5a,5b,6,7,7a,8,11,11a,11b,12,13,13a,13b-octadecahydro-1H-cyclopenta[a]chrysen-9-yl)benzoic acid]
pEC50 (class symbol): > 7.00

C=C(C)[C@@H]1CC[C@]2(CNCCN3CCNC3=O)CC[C@]3(C)[C@H](CC[C@@H]4[C@@]5(C)CC=C(c6ccc(C(=O)O)cc6)C(C)(C)[C@@H]5CC[C@]43C)[C@@H]12 [Example 77, 4-((1R,3aS,5aR,5bR,7aR,11aS,11bR,13aR,13bR)-5a,5b,8,8,11a-pentamethyl-3a-((2-(2-oxoimidazolidin-1-yl)ethylamino)methyl)-1-(prop-1-en-2-yl)-2,3,3a,4,5,5a,5b,6,7,7a,8,11,11a,11b,12,13,13a,13b-octadecahydro-1H-cyclopenta[a]chrysen-9-yl)benzoic acid]
pEC50 (class symbol): > 7.00

C=C(C)[C@@H]1CC[C@]2(CNCCN3CCCCC3=O)CC[C@]3(C)[C@H](CC[C@@H]4[C@@]5(C)CC=C(c6ccc(C(=O)O)cc6)C(C)(C)[C@@H]5CC[C@]43C)[C@@H]12 [Example 78, 4-((1R,3aS,5aR,5bR,7aR,11aS,11bR,13aR,13bR)-5a,5b,8,8,11a-pentamethyl-3a-((2-(2-oxopiperidin-1-yl)ethylamino)methyl)-1-(prop-1-en-2-yl)-2,3,3a,4,5,5a,5b,6,7,7a,8,11,11a,11b,12,13,13a,13b-octadecahydro-1H-cyclopenta[a]chrysen-9-yl)benzoic acid]
pEC50 (class symbol): > 7.00

C=C(C)[C@@H]1CC[C@]2(CNCC(C)CN3CCCC3=O)CC[C@]3(C)[C@H](CC[C@@H]4[C@@]5(C)CC=C(c6ccc(C(=O)O)cc6)C(C)(C)[C@@H]5CC[C@]43C)[C@@H]12 (stereo partly drawn) [Example 79, 4-((1R,3aS,5aR,5bR,7aR,11aS,11bR,13aR,13bR)-5a,5b,8,8,11a-pentamethyl-3a-((2-methyl-3-(2-oxopyrrolidin-1-yl)propylamino)methyl)-1-(prop-1-en-2-yl)-2,3,3a,4,5,5a,5b,6,7,7a,8,11,11a,11b,12,13,13a,13b-octadecahydro-1H-cyclopenta[a]chrysen-9-yl)benzoic acid]
pEC50 (class symbol): > 7.00
